Marks after values point to notes of the source that are not given here.
Assays:
[1] = system: Systemic Inflammatory Response Syndrome (SIRS): Intravenous Lipopolysaccharide Stimulation; assay: Animal model for SIRS: intravenous LPS bolus stimulation in rats (Method 1); assay type: in vivo; settings: for IL-6 / TAT: rat blood, ELISA
Method: Animal Model for Systemic Inflammatory Response Syndrome (SIRS): Intravenous Lipopolysaccharide Stimulation (Modified According to Isobe et al. Circulation 2001; 104: 1171-1175)
Rats (male, approx. 300 g CrlGlxBrlHan:Wi) were anaesthetised with pentobarbital (60 mg/kg i.p.). To maintain the anaesthetic a pentobarbital drip was set up (22.5 mg/kg/h i.p.). The carotid artery was cannulated for taking blood samples, the left jugular vein was cannulated for administration of the substance and the right jugular vein was cannulated for administering the LPS. The administration of (R)-2-[…]-5-[1-(carboxymethylamino)-1-(pyrrolidinocarbonyl)-ethyl]-benzimidazole (0.1 mg/kg/h) was started at time t=−60 min as a continuous drip and maintained until the end of the experiment. One hour after the start of the infusion of the substance, a single bolus of LPS was administered (lipopolysaccharide of E. coli serotype 0127:B8 Sigma L-3129 5 mg/kg i.v. bolus) at time t=0 min. In order to determine the coagulation and inflammation parameters, blood was taken via the arterial cannulae at times a) before the infusion of placebo or (R)-2-(4-amidinophenylaminomethyl)-1-methyl-5-[1-(carboxymethylamino)-1-(pyrrolidinocarbonyl)-ethyl]-benzimidazole (−60 minutes), b) before administration of the LPS bolus (0 minutes) and c) 240 minutes after the administration of LPS. From the blood samples the TAT complex (thrombin-antithrombin) and interleukin-6 (IL-6) were determined by ELISA as parameters of a systemic inflammatory reaction.

[2] = system: Systemic Inflammatory Response Syndrome (SIRS): Intravenous Lipopolysaccharide Stimulation; assay: Animal model for SIRS: continuous intravenous LPS infusion in rats (Method 2); assay type: in vivo
Method: Animal Model for Systemic Inflammatory Response Syndrome (SIRS): Intravenous Lipopolysaccharide Stimulation (Modified According to Aoki et al. Drug Res. 50: 809; 2000 and Yamazaki et al. Blood Coag. Fibrinol. 10: 321; 1999)
Rats (male, approx. 300 g CrlGlxBrlHan:Wi) were anaesthetised with pentobarbital (60 mg/kg i.p.). To maintain the anaesthetic a pentobarbital drip was set up (22.5 mg/kg/h i.p.). The left jugular vein was cannulated for administration of the substance and the right jugular vein was cannulated for administering the LPS. LPS was given as a continuous infusion for 4 hours (lipopolysaccharide of E. coli serotype 0127:B8 Sigma L-3129 7.5 mg/kg/h). (R)-2-(4-amidinophenylaminomethyl)-1-methyl-5-[1-(carboxymethylamino)-1-(pyrrolidinocarbonyl)-ethyl]-benzimidazole (0.1 mg/kg/h) was administered as a continuous infusion (100 μg/kg/h) one hour after the start of the LPS infusion with a total duration of 3 hours. In order to determine the inflammation parameters, blood was taken from the abdominal artery after a total test period of four hours. From the blood samples the TAT complex (thrombin-antithrombin), interleukin-1β (IL-1β), interleukin-6 (IL-6) and the tumour necrosis factor alpha (TNF-alpha) were determined by ELISA as parameters of a systemic inflammatory reaction. Alanine-aminotransferase (ALT) and creatinin served as enzyme parameters for organ damage to the liver and kidneys.

[3] = 0 min (before LPS bolus, 1 h after start of infusion), active substance 100 μg/kg/h
[4] = +240 min after LPS 5 mg/kg i.v. bolus, active substance 100 μg/kg/h
[5] = result in words, LPS bolus, 0.1 mg/kg/h
[6] = −60 min (before start of infusion), LPS + active substance 100 μg/kg/h continuous drip
[7] = LPS 7.5 mg/kg/h × 4 h + 100 μg/kg/h infusion from 1 h after LPS start for 3 h, blood after 4 h, mean ± standard deviation
[8] = result in words, continuous LPS infusion, 0.1 mg/kg/h

## Cn1c(CNc2ccc(C(=N)N)cc2)nc2cc([C@@](C)(NCC(=O)O)C(=O)N3CCCC3)ccc21 [BIBT 986, (R)-2-(4-amidinophenylaminomethyl)-1-methyl-5-[1-(carboxymethylamino)-1-(pyrrolidinocarbonyl)-ethyl]-benzimidazole]
[1]; [3]
  IL-6: 0.143 ± 0.083 ng/mL
  TAT: 2.21 ± 0.79 ng/mL
[1]; [4]
  IL-6: 43.454 +/− 2.975 * ng/ml
  TAT: 6.52 +/− 1.33 * ng/ml
[1]; [5]
  plasma levels of IL-6 versus untreated LPS animals: significant (p<0.02) reduction
  plasma levels of the TAT complex versus untreated LPS animals: significantly lower than in the untreated LPS animals (p<0.02) and were within the control range
[1]; [6]
  IL-6: 0.139 ± 0.086 ng/mL
  TAT: 2.33 ± 0.89 ng/mL
[2]; [7]
  IL-1β: 4036 ± 1000 pg/mL
  IL-6: 89579 ± 10069 pg/mL
  TNF-alpha: 1003 ± 292 pg/mL
[2]; kidney damage marker, LPS 7.5 mg/kg/h × 4 h + 100 μg/kg/h infusion for 3 h, blood after 4 h, mean ± standard deviation
  creatinin: 40.1 ± 1.8 µmol/L
[2]; liver damage marker, LPS 7.5 mg/kg/h × 4 h + 100 μg/kg/h infusion for 3 h, blood after 4 h, mean ± standard deviation
  ALT: 44.2 ± 7.1 U/ml
[2]; [8]
  ALT versus untreated control animals: not significantly different from untreated control animals
  TAT complex versus LPS-treated animals: significant lowering
  creatinin versus untreated control animals: not significantly different from untreated control animals
  plasma levels of IL-1β versus LPS-treated animals: significant (p<0.02) lowering
  plasma levels of IL-6 versus LPS-treated animals: significant (p<0.02) lowering
  plasma levels of TNF alpha versus LPS-treated animals: significant (p<0.02) lowering
